The values that follow come from patent publication US5646128A, “Methods for treating adenosine kinase related conditions” (priority 1994, dated 1997).

In data set [1] the test system is tumor necrosis factor alpha. To be noted: cited from earlier work.
For the next data set, the system named is heart. To be noted: in vivo; cited from earlier work.
The target of a further data set is T1, adenosine kinase (Bos taurus, UniProt A0AAA9RZ79).
T1 construct: endogenous in cells; host or cells: capillary endothelial cells from bovine heart
T1 sequence (A0AAA9RZ79 1-362): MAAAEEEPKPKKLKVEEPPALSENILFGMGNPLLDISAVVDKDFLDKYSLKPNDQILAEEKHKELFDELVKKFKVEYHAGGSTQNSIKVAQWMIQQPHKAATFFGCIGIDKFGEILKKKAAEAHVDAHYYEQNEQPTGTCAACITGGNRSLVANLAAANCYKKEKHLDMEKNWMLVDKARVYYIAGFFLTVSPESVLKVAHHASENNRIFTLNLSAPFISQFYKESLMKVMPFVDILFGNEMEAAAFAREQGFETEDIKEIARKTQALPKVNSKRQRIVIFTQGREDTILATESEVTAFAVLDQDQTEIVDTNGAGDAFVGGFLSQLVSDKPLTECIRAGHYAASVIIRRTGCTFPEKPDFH
Description: Adenosine kinase inhibition in intact cells (capillary endothelial cells from bovine heart). The format is cell-based. Conditions: 20 μM 2'-deoxycoformycin, 5 μM [3H]adenosine. The procedure:
Inhibition of adenosine kinase in intact cells was determined from the amount of incorporation of radioisotope from adenosine into the adenylates (AMP, ADP and ATP) in the presence of adenosine deaminase inhibition. […] The media was then discarded and the cells were treated with 50 μl 0.4M perchloric acid, centrifuged and the supernalants neutralized with 100 μl alanine: freon (1:4).

The test system of a further data set is TNF-α. The data set can be described thus: Inhibition of TNF-alpha production in endotoxemic mice (ELISA). The format is in vivo, Balb/C mice. To be noted: 0.1 mg/kg i.v., one hour after LPS; p<0.01. As to the method:
In these experiments, plasma TNF-α levels were measured in GP-1-515and placebo-treated mice (8 animals per group). Balb/C mice received an intravenous injection of E. coli LPS (900 ug/animal) (Sigma Chemical Co.) followed immediately by a second injection with 0.1 mg/kg of GP-1-515 or vehicle. Some animals were pretreated with an intraperitoneal injection of the adenosine receptor antagonist 8SPT. One hour later, blood was obtained from ether anesthetized animals by intracardiac puncture using a heparinized syringe. Blood samples were chilled on ice, centrifuged at 5000 rpm in a microcentrifuge for 5 minutes, and the plasma removed. TNF-α levels in the plasma were assayed by ELISA according to the instructions provided by the manufacturer (Endogen, Cambridge, Mass.).
In general terms: ELISA stands for enzyme-linked immunosorbent assay.

Data set [2] deals with E. coli LPS endotoxemia. The data set can be described thus: Prophylactic treatment for endotoxemia in mice. Conditions: 5 mg/kg oral, 6 hours before 700 ug LPS i.v. The format is in vivo, Balb/C mice. The procedure: As shown in Example E, intravenous treatment with an adenosine kinase inhibitor improves survival of mice if administered immediately after intravenous injection with LPS. In the following experiments, it was shown that an adenosine kinase inhibitor (GP-1-515) protects animals against endotoxemia if administered prophylactically. In these experiments, 25-30 gram male Balb/C mice received oral GP-1-515 (5 mg/kg in water) or vehicle by gavage. Six hours later, the animals received an intravenous injection of 700 ug of E. coli LPS (Sigma Chemical Co.). In an experiment involving 10 animals per group, 50% of mice in the adenosine kinase inhibitor-treated group survived for 2 days, while none of animals in the vehicle treated group survived for that time period (data not shown).

Another data set deals with bacterial translocation. Description: Burn model, bacterial translocation to mesenteric lymph nodes. Type of data set: in vivo, Female CF-1 mice. The procedure: Female CF-1, non-Swiss, non-albino mice (age 8-12 weeks) (Charles River Laboratory, Wilmington, Mass.) were anesthetized with a 1-2 minute exposure to methoxyflurane (Abbott Labs, Chicago, Ill.). The shaved dorsum was burned by a 6-second exposure to steam using a 3.5×5.5 cm template to produce a 32% total body surface area full thickness burn. Animals were resuscitated with 1 mL of normal saline i.p., followed by 0.1 mg/kg i.p./injection of GP-1-515 or an equal amount of vehicle. Animals also received an i.p. injection of morphine sulfate (15 mg/kg). The animals were administered a second injection of GP-1-515 (0.1 mg/kg) or vehicle i.p. 6 hours after the burn. Animals were fasted for 4 hours before the burn and for 24 hours thereafter. After 48 hours, the animals were sacrificed by cervical dislocation and the abdomen was opened using aseptic techniques. Mesenteric lymph nodes were harvested and weighed in sterile bags, homogenized in Trypticate Soy Broth (BBL, Becton Dickinson Microbiology System, Cockeysville, Md.). Ser. dilutions of the homogenate were plated on […] plates (BBL, Becton Dickinson) at 37° C. and the presence or absence of bacterial colonies was determined 48 hours later. In experiments involving approximately 120 animals, 52% of control mice had positive mesenteric lymph node cultures compared to 32% of GP-1-515-treated mice (p<0.05).

The subject of data set [3] is E. coli LPS endotoxemia. Description: Survival in endotoxemia (E. coli LPS) in mice. Type of data set: in vivo, Balb/C mice. Conditions: i.v. immediately after 900 ug LPS i.v.; p=0.015. An excerpt: An adenosine kinase inhibitor (GP-1-515) was used to increase endogenous adenosine production in vivo.
Data set [4] concerns E. Coli 0111:B4 lipopolysaccharide (LPS) endotoxic shock. The data set can be described thus: Endotoxic shock in pigs. Type of data set: in vivo, Yucatan miniature pigs. As to the method: Male or female Yucatan miniature pigs (20-27 kg) were pre-medicated with xylazine ([…] i.m.), ketamine (150 mg i.m.), and atropine (1 mg i.m.). The animals were intubated, administered 10 mg/kg of pentobarbital intravenously, and covered with a blanket to maintain normal body temperature. A pentobarbital infusion was maintained at 10 mg/kg/hr. The pigs were ventilated with 30% O2 using a Harvard large animal respirator at 7-10 breaths/rain in order to achieve a blood pH of approximately 7.45-7.50. A bolus of 4 mg of Pancuronium bromide was given to inhibit muscle contraction in response to the cautery and the animals were hydrated with a continuous infusion of saline at 60-80 cc/hr. A left thoracotomy was performed in the third intercostal space and the pulmonary artery, carotid artery, external jugular vein were cannulated with PE-190 tubing. A line was also placed in the left atrium and a catheter tipped micromanometer was inserted into the left ventricle via an apical stab wound. A transit-time flow probe was placed on the pulmonary artery. Pressure readings were obtained using a Statham pressure transducer connected to a Gould strip chart recorder. Heparinized arterial blood samples for blood gases were obtained through the carotid arterial catheter. Drugs and endotoxin were infused through the external jugular catheter.
After the animals had stabilized, a continuous infusion of GP-1-515 (0.3 μg/kg/m in) was started, followed 30 min later by a slow infusion of E. Coli 0111:B4 lipopolysaccharide (LPS) (Sigma Chemical Co., St. Louis, Mo.) over 30 min. The animals continued to receive GP-1-515 or vehicle for 4 additional hours and were ventilated with a fixed tidal volume and FiO2. […] Control animals developed severe hypoxemia, hypercapnia, and acidosis. […] 4/7pigs in the control group died (several of whom had frank pulmonary edema) compared to 1/7in the GP-1-515-treated group. Upon completion of the study, the surviving animals were euthanized with an intravenous bolus of pentobarbital.

For data set [5], the system named is bacterial peritonitis and septic shock. Description: Cecal ligation and puncture, model of chronic sepsis. The format is in vivo, male CD rats. Conditions: 5 mg/kg orally, 2 hours before. The procedure: Cecal ligation and puncture (CLP) is a model of bacterial peritonitis and septic shock which mimics systemic infections in humans. In these experiments, male CD rats were fasted overnight and treated orally with either GP-1-515 (5 mg/kg) or vehicle by gavage. Two hours later, animals were anesthetized with ether and the anterior abdominal wall was shaved. A midline incision was made and the cecum was exteriorized and ligated with 3-0 silk suture near the ilial-cecal junction without causing bowel obstruction. The cecum was punctured twice on the anti-mesenteric side using a yellow tip disposable pipette tip (Fisher, Tustin, Calif.) and squeezed to ensure patency. The cecum was placed back in the abdominal cavity and the peritoneal wall was closed with 5-0 nylon sutures. The skin was closed with 9 mm stainless steel wound clips. The animals were resuscitated with a subcutaneous injection of 2 mL of sterile saline. No antibiotics were administered.

Data set [6] is described as follows: Oral bioavailability (statement). The format is in vivo. Conditions: pro-drug of GP-1-515.
Data set [7] deals with plasma leakage in rat skin. Description: Suppression of vascular (plasma) leakage in rat skin, Evans' Blue. Type of data set: in vivo, Male SA rats. Conditions: for inhibition at 5 mg/kg: Rattus norvegicus, po, 5 mg/kg p.o. 1 hr prior. The procedure: Leakage of plasma into inflamed skin was measured using Evans' Blue (Sigma Chemical Co., St. Louis, Mo.), which binds irreversibly to albumin. Evans' Blue and bovine serum albumin (Sigma) were mixed (20 and 40 mg/mL PBS, respectively) and incubated for 15 min at room temperature in order to form a conjugate. The mixture was then filtered through a 0.45 μm pore syringe filter and immediately used. […] The rats were then briefly anesthetized with halothane and dorsal skin injection sites (up to 4/rat) were stamped with a 12 mm test tube inked with a felt pad. Every site received 100 μl of an inflammatory agent or PBS injected intradermally into the middle of the circular mark. Inflammatory agents included carrageenan (1%) and histamine (10^-3 M) (Sigma). Rats were then returned to their cages. Two hrs later, animals were again anesthetized and 0.5 mL blood was obtained through orbital plexus bleed. Following sacrifice of the rats, the injection sites were excised along the marked lines, and subcutaneous muscle and fat layers were removed from the skin biopsies. Each skin biopsy was weighed and cut in four, and its Evans' Blue content was extracted overnight by incubation in 1 mL N,N-dimethylformamide (Aldrich, Milwaukee, Wis.). The absorbance at 650 nm of plasma samples and skin extracts was read in a plate reader, and the plasma content of each skin piece was calculated and expressed as μl plasma/g tissue.

For data set [8] the following is noted: cited from earlier work.
The test system of data set [9] is perfusate adenosine, isolated rat hearts. Conditions: normoxic, hypoxic, anoxic or ischemic conditions; alone; cited from earlier work.
For data set [10] the following is noted: mouse, in vivo; cited from earlier work.
In data set [11] the test system is adenosine uptake, guinea pig brain slices. To be noted: cited from earlier work.
The subject of data set [12] is adenosine uptake, rat brain slices. To be noted: cited from earlier work.
The subject of data set [13] is dog hearts subjected to ischemia and reperfusion. To be noted: in vivo; cited from earlier work.

“Also recorded” adds a separate entry of the source. Like-named read-outs stand apart in the source and are kept apart here.

As to `Nc1ncnc2c1ncn2[C@@H]1O[C@H](CO)[C@@H](O)[C@H]1O` [Adenosine, adenosine], in data set [1], the “in vitro production of tumor necrosis factor alpha” value was “inhibit in vitro production”. In the data set with heart, the coronary steal entry is “cause coronary steal”; the “inotropic, chronotropic and dromotropic effects” value was “negative inotropic, chronotropic and dromotropic effects”.
For orientation: IC50 means the concentration that gives 50% inhibition. Low values mean greater potency, high ones weaker potency. As to `NC[C@H]1O[C@@H](n2nc(Br)c3c(N)ncnc32)[C@H](O)[C@@H]1O` [GP-1-515], at adenosine kinase, half-maximal inhibition (IC50) was put at 9 nM. Also, the “plasma TNF-α levels” value in the data set with TNF-α was “significantly decreased plasma TNF-α levels”. In the data set on E. coli LPS endotoxemia [2], the “mice surviving for 2 days” value is 50%. Moreover, the “mice with positive mesenteric lymph node cultures” value with bacterial translocation (0.1 mg/kg i.p. twice, 48 hours, control 52%, p<0.05) was determined as 32%. Besides, the “bacterial translocation” value in the data set with bacterial translocation (after a severe burn (or pancreatitis)) is reported as “significantly decreased; also recorded: significantly reduce bacterial translocation”. Also, the “survival in endotoxic shock” value with E. coli LPS endotoxemia [3] is “dose-dependent increase in survival; also recorded: protecting against endotoxic shock”. Besides, the “gas exchange, pulmonary function, blood gases” value in data set [4] (0.3 μg/kg/min infusion) is “marked protection; also recorded: minimal changes in blood gases; also recorded: did not develop the hypoxemia, hypercapnia and acidosis exhibited in the control animals”. Further, the pigs died in [4] (control 4/7) was 1/7. In [4] (versus control), the blood pressure result was “Blood pressures were similar in the treated and control groups”; the heart rate result is recorded as “the control group,, required a significantly higher heart rate; also recorded: lower heart rates than control animals”. Besides, the “other hemodynamic parameters, including pulmonary flow and pulmonary vascular resistance” value in data set [4] (versus untreated) is on record as “either not different or modestly improved”. In addition, in data set [5], the “survival after cecal ligation and puncture” value is reported as “improved survival”.
A word on the inhibition: it is how much of the control response was suppressed. `CC(=O)O[C@@H]1[C@H](OC(C)=O)[C@@H](CN)O[C@H]1n1nc(Br)c2c(N)ncnc21` [GP-1-792, 4-amino-1-(5-amino-5-deoxy-2,3-di-O-acetyl-1-β-D-ribofuranosyl)-3-bromopyrazolo[3,4-d]pyrimidine]: the “oral bioavailability” value in data set [6] is “orally bioavailable”. For the same molecule, the “suppression of carrageenan and histamine induced plasma leakage” value in [7] (FIG. 13 legend) is “suppression of carrageenan and histamine induced plasma leakage”. In addition, the inhibition at 5 mg/kg in [7] (carrageenan (1%), read-out: inhibition of carrageenan-induced plasma leakage) is 47 ± 5%; in data set [7] (histamine (10^-3 M), read-out: inhibition of histamine-induced plasma leakage) it was 51 ± 5%.
As to `Nc1ncnc2c1c(I)cn2[C@@H]1O[C@H](CO)[C@@H](O)[C@H]1O` [GP-1-202, 5-iodotubercidin, reference compound], the “blood pressure and heart rate in anesthetized rats” value in data set [8] was “decrease blood pressure and heart rate”. In data set [9], the “perfusate adenosine concentration, isolated rat hearts” value is listed as “no increase in perfusate adenosine concentration”. Also, in data set [10], the “body temperature in mice” value was “hypothermia”; the “flaccidity and locomotor activity in mice” value is “pronounced general flaccidity and much-reduced spontaneous locomotor activity”. For the same molecule, in [11], the “adenosine uptake, guinea pig brain slices” value is on record as “inhibited”. Besides, in [12], the “adenosine uptake, rat brain slices” value is “inhibited”. In addition, the “effects in dog hearts, ischemia and reperfusion” value in data set [13] was “inconsistent effects”.
